Experimental data published in ChEMBL document CHEMBL5725865, “Neprilysin inhibitors” (2018).

Assay: Enzyme NEP Inhibition Assay: The assays were performed in 384-well white opaque plates at 37° C. using the fluorogenic peptide substrates at a concentration of 10 μM in Assay Buffer (NEP: 50 mM HEPES, pH 7.5, 100 mM NaCl, 0.01% polyethylene glycol sorbitan monolaurate (Tween-20), 10 μM ZnSO4; ACE: 50 mM HEPES, pH 7.5, 100 mM NaCl, 0.01% Tween-20, 1 μM ZnSO4). The respective enzymes were used at …
Description: Enzyme NEP Inhibition Assay: The assays were performed in 384-well white opaque plates at 37° C. using the fluorogenic peptide substrates at a concentration of 10 μM in Assay Buffer (NEP: 50 mM HEPES, pH 7.5, 100 mM NaCl, 0.01% polyethylene glycol sorbitan monolaurate (Tween-20), 10 μM ZnSO4; ACE: 50 mM HEPES, pH 7.5, 100 mM NaCl, 0.01% Tween-20, 1 μM ZnSO4). […] Test compounds were added to the enzymes and incubated for 30 minute at 37° C. prior to initiating the reaction by the addition of substrate.

For O=C(O)C(=O)N[C@H](Cc1ccc(-c2ccccc2)cc1)CC(O)C(=O)O (stereo partly specified), the Ki was “in the range around 0.0355 µM”.
